How the values were obtained:
[1] = test system: PC-3 cells; experiment: Confocal fluorescence imaging, PSMA-negative cells; format: cell-based; settings: PSMA-negative PC-3 cells, 50 nmol/L
Method: (§1) For confocal microscopy sample preparation, 10^5 cells/well were seeded in poly-L-lysine (Sigma-Aldrich, Darmstadt, Germany) coated 4-well chambered coverslips (Nunc Lab-Tek II chambered coverglasses, Thermo Fisher Scientific, Waltham, MA, USA, live cell imaging) or on poly-L-lysine (Sigma-Aldrich, Darmstadt, Germany) coated #1 coverslips (15 mm diameter, fixed cell imaging) and kept for 48 h at 37 °C in humidified air with 5% CO2. Subsequently, cells were incubated with 50 nmol/L PSMA-927in RPMI for 5/15/30/45/60 min at 37 °C in humidified air with 5% CO2. […]
(§2) All confocal data were acquired with a custom-built STED system similar to the one published by Gorlitz et al.. […] Laser powers were measured in front of the microscope body. […]
(§3) The integrated fluorescence intensity was extracted with a custom-written ImageJ routine. […] Multiplying this mask with the corresponding raw image generates an output image with which the integrated fluorescence intensity can be evaluated exclusively in the signal-carrying parts of the raw image without summing up background.

[2] = Lipophilicity, logD at pH 7.4 in n-octanol/PBS; format: physicochemical; settings: 68Ga-labeled ligand
Method: The synthesis was performed according to previously published protocols. Details on synthesis and analytical data of the compounds are provided in the Supplementary Materials (Compound Synthesis and Analytical Characterization). […] Using 30% NaOH (Sigma-Aldrich, Darmstadt, Germany) and 10% NaOH (Sigma-Aldrich, Darmstadt, Germany), the pH was adjusted to 3.8. The reaction mixture was incubated at 98 °C for 5–10 min. The radiochemical yield was analyzed by reversed-phase high-performance liquid chromatography (RP-HPLC) or reversed-phase thin-layer chromatography (RP-TLC, 60 RP-18 F254S, Sigma-Aldrich, Darmstadt, Germany) with 0.5 M ammonium acetate/methanol (1:1) as the mobile phase. The lipophilicity of the ^68Ga-labeled compounds was determined using the 2-phase system n-octanol and PBS.

[3] = test system: LNCaP cells; experiment: Cytotoxicity study by holographic time-lapse imaging; format: cell-based; settings: 100 nmol/L, constant exposure for 48 h
Method: Potential cytotoxicity of PSMA-927 was assessed by analyzing the frequency of LNCaP cell division and the length of the LNCaP cell cycle via holographic time-lapse imaging. Cells were seeded in lumox® 24-well plates (Sarstedt, Nümbrecht, Germany) 48 h prior to the experiment and kept at 37 °C and 5% CO2. Imaging was performed with a HoloMonitor® M4 cytometer (PHI AB, Lund, Schweden) for a total period of 48 h at 37 °C and 5% CO2 with 15 min between image captures. Cell proliferation was followed in absence and in presence of 100 nmol/L PSMA-927. Data analysis was performed with the AppSuite software including cell segmentation, tracking of cells, identification of dividing cells, confluency measurement, and cell counting.

[4] = test system: LNCaP cells; experiment: Specific cell surface binding and internalization of 68Ga-labeled compounds; format: cell-based
Method: (§4) LNCaP cells (CRL-1740; ATCC; PSMA-positive) and PC-3 cells (CRL-1435; ATCC; PSMA-negative) were cultured in RPMI medium (Thermo Fisher Scientific, Waltham, MA, USA) supplemented with 10% fetal calf serum and 2 mmol/L L-glutamine (all from (Thermo Fisher Scientific, Waltham, MA, USA) ) at 37 °C in humidified air with 5% CO2. Cells were harvested using trypsin-ethylenediaminetetraacetic acid (trypsin-EDTA; 0.25% trypsin, 0.02% EDTA, Invitrogen, Waltham, MA, USA). Cell line authentication was regularly performed. Binding affinities and internalization profiles of the ^68Ga-labeled compounds were determined in competitive cell binding assays and internalization experiments as described previously.

[5] = test system: LNCaP cells; experiment: Confocal fluorescence imaging, PSMA-positive cells; format: cell-based; settings: 50 nmol/L, 60 min of internalization
Method: as §1, §2, §3

[6] = target: T1, PSMA (Homo sapiens, UniProt Q04609); experiment: Competitive cell binding assay (radioligand 68Ga-PSMA-10); settings: free ligands, mean ± SD, n = 3
T1 construct: LNCaP cells (CRL-1740; ATCC; PSMA-positive); host or cells: LNCaP cells
Method: as §4

[7] = Spectral properties (absorption and emission); format: physicochemical; settings: 10 μM in PBS (pH 7.4)
Method: Absorbance was measured with a Varian Cary 500 UV-VIS NIR Spectrophotometer (Agilent, Santa Clara, CA, USA) equipped with the software Cary 500 (EPROM Version 8.01, Agilent, Santa Clara, CA, USA) in the 200–1200 nm interval. Fluorescence emission was measured with a Varian Cary Eclipse Fluorescence-Spectrophotometer (Agilent, Santa Clara, CA, USA) equipped with the software Cary Eclipse (Version 1.1, Agilent, Santa Clara, CA, USA) with excitation at 710 nm in the 720–900 nm interval. PSMA-927 was diluted to 10 μM in PBS (pH 7.4) and measured in standard 1 cm quartz cuvettes.

[8] = test system: LNCaP xenograft mouse model; experiment: Small-animal PET/MRI proof-of-concept, PSMA-positive xenograft; format: in vivo, mice
Method: (§5) Biodistribution and proof-of-concept imaging studies were performed in an experimental tumor xenograft model. A total of 5 × 10^6 cells of LNCaP (in 50% Matrigel; Becton Dickinson, Franklin Lakes, NJ, USA) were subcutaneously inoculated into the flank of 7- to 8-week-old male BALB/c nu/nu mice (Charles River, Wilmington, MA, USA/Janvier Labs, Le Genest-Saint-Isle, France).
(§6) For the proof-of-concept imaging study, 0.5 nmol of the ^68Ga-labeled compound in 0.9% NaCl (pH 7) were injected into the tail vein under anesthesia (2% isoflurane, n = 1). PET/MRI was performed with a 3T PET/MRI scanner (Bruker, Ettlingen, Germany). For MR imaging, a nontriggered localizer followed by a T1-weighted 3D scan was applied. For PET imaging, a dynamic scan for 60 min and a static scan (20 min) at 2 h p.i. was recorded. Image reconstruction was done with ParaVision software (dynamic scan: MLEM 0.5 mm algorithm, 12 iterations; static scan: OSEM 0.25 mm algorithm, 1 iteration), and data analysis was conducted in PMOD (version 3.7) with data converted to SUV images. After PET/MRI, the mice were sacrificed, and optical imaging of the subcutaneous tumor and organs of interest was performed with the Odyssey CLx system (LI-COR Biosciences, excitation wavelength 800 nm).

[9] = test system: LNCaP-tumor bearing BALB/c nu/nu mice; experiment: Biodistribution (organ distribution) in tumor xenograft model; format: in vivo; settings: 0.06 nmol; for Organ distribution Blood / Organ distribution Brain / Organ distribution Heart / Organ distribution Intestine / Organ distribution Kidney / Organ distribution Liver / Organ distribution Lung / Organ distribution Muscle / Organ distribution Spleen / Organ distribution Tumor: n=3
Method: as §5
For biodistribution studies, 60 pmol of ^68Ga-labeled PSMA-927 were injected into the tail vein (1–3 MBq, n = 3). The animals were sacrificed at 1 and at 2 h p.i., and organs of interest were dissected, blotted dry, and weighed. Finally, the radioactivity was measured using a gamma counter and calculated as % ID/g.

[10] = test system: PC-3 tumor xenografts; experiment: Small-animal PET/MRI proof-of-concept, PSMA-negative xenograft; format: in vivo, mice; settings: 0.5 nmol, PSMA-negative PC-3 xenograft, n = 1
Method: as §6

[11] = 68Ga-labeled compounds, blockage with 500 µmol/L 2-PMPA, mean ± SD, n = 3

T1 sequence (Q04609 whole entry): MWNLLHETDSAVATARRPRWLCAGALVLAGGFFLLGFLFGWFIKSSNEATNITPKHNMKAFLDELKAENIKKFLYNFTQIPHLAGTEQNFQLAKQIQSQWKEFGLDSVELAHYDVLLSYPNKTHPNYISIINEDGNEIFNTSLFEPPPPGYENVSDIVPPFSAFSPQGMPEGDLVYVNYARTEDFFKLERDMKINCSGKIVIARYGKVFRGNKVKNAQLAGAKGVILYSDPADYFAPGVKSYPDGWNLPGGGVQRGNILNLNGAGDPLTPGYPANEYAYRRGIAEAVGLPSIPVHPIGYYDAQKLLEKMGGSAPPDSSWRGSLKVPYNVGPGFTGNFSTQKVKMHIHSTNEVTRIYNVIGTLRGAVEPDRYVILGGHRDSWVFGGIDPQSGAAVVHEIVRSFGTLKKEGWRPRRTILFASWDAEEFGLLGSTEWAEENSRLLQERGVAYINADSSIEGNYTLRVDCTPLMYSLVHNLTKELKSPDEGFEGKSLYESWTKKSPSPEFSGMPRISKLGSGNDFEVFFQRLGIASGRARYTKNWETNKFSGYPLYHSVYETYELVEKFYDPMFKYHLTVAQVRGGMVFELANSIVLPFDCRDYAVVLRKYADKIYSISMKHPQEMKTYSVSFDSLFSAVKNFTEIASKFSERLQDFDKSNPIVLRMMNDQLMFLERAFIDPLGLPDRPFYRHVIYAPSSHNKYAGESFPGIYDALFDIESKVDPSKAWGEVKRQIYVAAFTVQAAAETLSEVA

## CC1(C)C(=CC=C2CCCC(C=CC3=[N+](CCCCCC(=O)NCCCCC(NC(=O)CN4CCN(CC(=O)O)CCN(CC(=O)O)CCN(CC(=O)O)CC4)C(=O)NCC4CCC(C(=O)NC(Cc5ccc6ccccc6c5)C(=O)NCCCCC(NC(=O)NC(CCC(=O)O)C(=O)O)C(=O)O)CC4)c4ccc(S(=O)(=O)O)cc4C3(C)C)=C2Oc2ccc(S(=O)(=O)O)cc2)N(CCCCS(=O)(=O)O)c2ccc(S(=O)(=O)O)cc21 (stereo not drawn) [PSMA-927, Glu-urea-Lys-2-Nal-Chx-Lys(IRDye800CW)-DOTA]
[1]
  fluorescence signal increase: no significant fluorescence signal increase
[2]
  Lipophilicity logDpH 7.4 n-octanol/PBS: -2.96 ± 0.06
[3]
  cytotoxicity (cell count, confluency, frequency of cell division, cell cycle length): did not reveal any evidence of cytotoxicity
[4]; [11]
  Specifically Cell Surface Bound: 25.51 ± 9.73 %AR/10^5 Cells
  Specifically Internalized: 27.64 ± 12.80 %AR/10^5 Cells
[5]; PFA-fixed cells
  integrated fluorescence intensity fixed: 3021 ± 863 counts
[5]; live cells
  integrated fluorescence intensity live: 11,618 ± 5412 counts
[6]; Ki=IC50/(1+cradioligand/Kd)
  Ki: 13.2 ± 5.25 nM
[6]; radioligand 68Ga-PSMA-10, 0.75 nmol/L
  IC50: 15.9 ± 5.46 nM
[7]
  absorption maximum: 778 nm
[7]; excitation at 710 nm
  emission maximum: 796 nm

## CC1(C)C(=CC=C2CCCC(C=CC3=[N+](CCCCCC(=O)NCCCCC(NC(=O)CN4CCN(CC(=O)[O-])CCN(CC(=O)[O-])CCN(CC(=O)[O-])CC4)C(=O)NCC4CCC(C(=O)NC(Cc5ccc6ccccc6c5)C(=O)NCCCCC(NC(=O)NC(CCC(=O)O)C(=O)O)C(=O)O)CC4)c4ccc(S(=O)(=O)[O-])cc4C3(C)C)=C2Oc2ccc(S(=O)(=O)O)cc2)N(CCCCS(=O)(=O)O)c2ccc(S(=O)(=O)O)cc21.[68Ga+3] (stereo not drawn) [[^68Ga]Ga-PSMA-927, 68Ga-Glu-urea-Lys-2-Nal-Chx-Lys(IRDye800CW)-DOTA]
[8]; 0.5 nmol, PSMA-positive LNCaP xenograft, n = 1
  tumor uptake in PET/MRI: strong and specific tumor uptake
[8]; time activity curves, PET/MRI
  pharmacokinetic profile (clearance): rapid clearance from non-malignant tissue (heart, liver, muscle) via the renal pathway
[9]; 1 h p.i.
  Tumor-to-Organ ratio Blood: 3.69 ± 0.60
  Tumor-to-Organ ratio Brain: 57.84 ± 9.25
  Tumor-to-Organ ratio Heart: 8.57 ± 2.07
  Tumor-to-Organ ratio Intestine: 10.37 ± 2.47
  Tumor-to-Organ ratio Kidney: 0.06 ± 0.01
  Tumor-to-Organ ratio Liver: 4.51 ± 0.84
  Tumor-to-Organ ratio Lung: 2.84 ± 0.37
  Tumor-to-Organ ratio Muscle: 12.23 ± 1.39
  Tumor-to-Organ ratio Spleen: 1.76 ± 0.71
  Organ distribution Blood: 1.14 ± 0.14 %ID/g
  Organ distribution Brain: 0.07 ± 0.01 %ID/g
  Organ distribution Heart: 0.51 ± 0.10 %ID/g
  Organ distribution Intestine: 0.43 ± 0.12 %ID/g
  Organ distribution Kidney: 65.64 ± 6.60 %ID/g
  Organ distribution Liver: 0.95 ± 0.15 %ID/g
  Organ distribution Lung: 1.47 ± 0.14 %ID/g
  Organ distribution Muscle: 0.34 ± 0.03 %ID/g
  Organ distribution Spleen: 2.82 ± 1.19 %ID/g
  Organ distribution Tumor: 4.13 ± 0.15 %ID/g
[9]; 2 h p.i.
  Tumor-to-Organ ratio Blood: 7.58 ± 1.65
  Tumor-to-Organ ratio Brain: 29.37 ± 13.17
  Tumor-to-Organ ratio Heart: 14.79 ± 4.40
  Tumor-to-Organ ratio Intestine: 11.92 ± 5.17
  Tumor-to-Organ ratio Kidney: 0.13 ± 0.06
  Tumor-to-Organ ratio Liver: 7.80 ± 3.09
  Tumor-to-Organ ratio Lung: 6.11 ± 2.36
  Tumor-to-Organ ratio Muscle: 11.55 ± 5.94
  Tumor-to-Organ ratio Spleen: 3.60 ± 1.86
  Organ distribution Blood: 0.82 ± 0.23 %ID/g
  Organ distribution Brain: 0.24 ± 0.11 %ID/g
  Organ distribution Heart: 0.43 ± 0.14 %ID/g
  Organ distribution Intestine: 0.59 ± 0.26 %ID/g
  Organ distribution Kidney: 57.47 ± 23.83 %ID/g
  Organ distribution Liver: 0.87 ± 0.34 %ID/g
  Organ distribution Lung: 1.11 ± 0.42 %ID/g
  Organ distribution Muscle: 0.66 ± 0.30 %ID/g
  Organ distribution Spleen: 2.08 ± 0.90 %ID/g
  Organ distribution Tumor: 5.85 ± 0.91 %ID/g
[10]
  tumor uptake in PET/MRI: lack of measurable uptake
[4]
  specific cell surface binding: 25.51 ± 9.73 %ID/10^5 LNCaP cells
  specific internalization rate: 27.64 ± 12.80 %ID/10^5 LNCaP cells
